Data published in patent US4352792A, “3-Alkoxyflavone antiviral agents” (priority 1979, dated 1982).
In brackets after ≈: the same amount, converted by molar mass. Like-named read-outs stand apart in the source and are kept apart here.

Columns and labels:
acute toxicity in mice = details: mouse, in vivo, day 21
Coxsackie virus B1 [1] = assay: Anti-Coxsackie virus activity, lethal infection in mice
Coxsackie virus B1 [2] = assay: Inhibition of viral cytopathogenic effect in HeLa cells (Coxsackie virus B1); format: cell-based; details: for IC50: HeLa, 24 h, read-out: IC50 Coxsackie virus B1
rhinovirus HGP = assay: Inhibition of viral cytopathogenic effect in HeLa cells (rhinovirus HGP); format: cell-based; details: Enterovirus, 48 h, read-out: IC50 rhinovirus HGP
Coxsackie virus B1 [3] = tested on: Coxsackie virus B1
influenzavirus A2/Adachi = assay: Anti-influenzavirus activity in mice; details: up to 21 days; for Survivals: survivors/total
rhinovirus type 3 = assay: in vitro antiviral spectrum; format: cell-based; details: Enterovirus, read-out: Minimum inhibitory concentration
rhinovirus type 53 = assay: in vitro antiviral spectrum; format: cell-based; details: Enterovirus, read-out: Minimum inhibitory concentration
rhinovirus type 47 = assay: in vitro antiviral spectrum; format: cell-based; details: Enterovirus, read-out: Minimum inhibitory concentration
rhinovirus type 21 = assay: in vitro antiviral spectrum; format: cell-based; details: Enterovirus, read-out: Minimum inhibitory concentration
rhinovirus type 32 = assay: in vitro antiviral spectrum; format: cell-based; details: Enterovirus, read-out: Minimum inhibitory concentration
rhinovirus type 17 = assay: in vitro antiviral spectrum; format: cell-based; details: Enterovirus, read-out: Minimum inhibitory concentration
rhinovirus type 16 = assay: in vitro antiviral spectrum; format: cell-based; details: Enterovirus, read-out: Minimum inhibitory concentration
rhinovirus type 39 = assay: in vitro antiviral spectrum; format: cell-based; details: Enterovirus, read-out: Minimum inhibitory concentration
rhinovirus type 26 = assay: in vitro antiviral spectrum; format: cell-based; details: Enterovirus, read-out: Minimum inhibitory concentration
rhinovirus type 9 = assay: in vitro antiviral spectrum; format: cell-based; details: Enterovirus, read-out: Minimum inhibitory concentration
rhinovirus type 36 = assay: in vitro antiviral spectrum; format: cell-based; details: Enterovirus, read-out: Minimum inhibitory concentration
rhinovirus type 50 = assay: in vitro antiviral spectrum; format: cell-based; details: Enterovirus, read-out: Minimum inhibitory concentration
rhinovirus type 44 = assay: in vitro antiviral spectrum; format: cell-based; details: Enterovirus, read-out: Minimum inhibitory concentration
rhinovirus type 14 = assay: in vitro antiviral spectrum; format: cell-based; details: Enterovirus, read-out: Minimum inhibitory concentration
rhinovirus type 2 = assay: in vitro antiviral spectrum; format: cell-based; details: Enterovirus, read-out: Minimum inhibitory concentration
rhinovirus type 55 = assay: in vitro antiviral spectrum; format: cell-based; details: Enterovirus, read-out: Minimum inhibitory concentration
rhinovirus type 1A = assay: in vitro antiviral spectrum; format: cell-based; details: Enterovirus, read-out: Minimum inhibitory concentration
rhinovirus type 13 = assay: in vitro antiviral spectrum; format: cell-based; details: Enterovirus, read-out: Minimum inhibitory concentration
rhinovirus type 34 = assay: in vitro antiviral spectrum; format: cell-based; details: Enterovirus, read-out: Minimum inhibitory concentration
rhinovirus type 4 = assay: in vitro antiviral spectrum; format: cell-based; details: Enterovirus, read-out: Minimum inhibitory concentration
rhinovirus type 30 = assay: in vitro antiviral spectrum; format: cell-based; details: Enterovirus, read-out: Minimum inhibitory concentration
[4] = ip, single dose i.p., dissolved in dimethyl sulfoxide, read-out: LD50 i.p.
[5] = po, single dose p.o., suspended in 0.5% carboxymethylcellulose, read-out: LD50 p.o.
[6] = Mus musculus, iv, 504 h, read-out: Survival
[7] = 50% inhibition of viral c.p.e., HeLa cells, 2 days at 33° C.
[8] = Mus musculus, ip, 504 h, read-out: Survival
[9] = Mus musculus, po, 504 h, read-out: Survival

## COc1cc(O)c2c(=O)c(OC)c(-c3ccc(OC(=O)[C@H](C)N)c(OC)c3)oc2c1 [4'-(L-alanyloxy)-5-hydroxy-3,3',7-trimethoxyflavone]
Acute toxicity in mice; [4]
  LD50 at 504 h: > 1000 mg/kg
Acute toxicity in mice; [5]
  LD50 at 504 h: > 5000 mg/kg
Coxsackie virus B1 [1]; [6]
  responders at 10 mg/kg: 42%
Coxsackie virus B1 [2]
  IC50: 0.25 to 0.5 µg/mL (≈ 0.602 to 1.2 µM)
Rhinovirus HGP; [7]
  IC50: 0.5 µg/mL (≈ 1.2 µM)

## COc1cc(OC(C)=O)c2c(=O)c(OC)c(-c3ccc(OC(C)=O)c(OC)c3)oc2c1
Acute toxicity in mice; [4]
  LD50 at 504 h: > 1000 mg/kg
Acute toxicity in mice; [5]
  LD50 at 504 h: > 5000 mg/kg
Coxsackie virus B1 [1]; 40 mg/kg × 9, p.o., up to 21 days
  Survival: 50%
Coxsackie virus B1 [1]; [8]
  responders at 10 mg/kg: 54%
  responders at 20 mg/kg: 67%
Coxsackie virus B1 [1]; [9]
  responders at 20 mg/kg: 20%
  responders at 40 mg/kg: 50%
  responders at 80 mg/kg: 60%
Coxsackie virus B1 [2]
  IC50: 0.1 to 0.2 µg/mL (≈ 0.233 to 0.467 µM)
Coxsackie virus B1 [3]; 10 mg/kg × 9 orally, infection 2.5x LD50, day 21
  Survivors/total: 2/7
Coxsackie virus B1 [3]; 10 mg/kg × 9 orally, infection 10x LD50, day 21
  Survivors/total: 1/7
Coxsackie virus B1 [3]; 10 mg/kg × 9 orally, infection 40x LD50, day 21
  Survivors/total: 0/7
Coxsackie virus B1 [3]; 10 mg/kg × 9 orally, infection 160x LD50, day 21
  Survivors/total: 0/7
Coxsackie virus B1 [3]; 20 mg/kg × 9 orally, infection 2.5x LD50, day 21
  Survivors/total: 3/7
Coxsackie virus B1 [3]; 20 mg/kg × 9 orally, infection 10x LD50, day 21
  Survivors/total: 2/7
Coxsackie virus B1 [3]; 20 mg/kg × 9 orally, infection 40x LD50, day 21
  Survivors/total: 1/7
Coxsackie virus B1 [3]; 20 mg/kg × 9 orally, infection 160x LD50, day 21
  Survivors/total: 1/7
Coxsackie virus B1 [3]; 40 mg/kg × 9 orally, infection 2.5x LD50, day 21
  Survivors/total: 4/7
Coxsackie virus B1 [3]; 40 mg/kg × 9 orally, infection 10x LD50, day 21
  Survivors/total: 3/7
Coxsackie virus B1 [3]; 40 mg/kg × 9 orally, infection 40x LD50, day 21
  Survivors/total: 2/7
Coxsackie virus B1 [3]; 40 mg/kg × 9 orally, infection 160x LD50, day 21
  Survivors/total: 2/7
Influenzavirus A2/Adachi; 20 mg/kg × 9, i.p.
  Survivals: 2/7
  Survivals (%): 29%
Influenzavirus A2/Adachi; 40 mg/kg × 9, i.p.
  Survivals: 3/8
  Survivals (%): 38%
Rhinovirus HGP; [7]
  IC50: 0.1 to 0.2 µg/mL (≈ 0.233 to 0.467 µM)

## COc1cc(O)c2c(=O)c(OC)c(-c3ccc(OC(=O)[C@@H](N)CCCCN)c(OC)c3)oc2c1 [5-hydroxy-4'-(L-lysyloxy)-3,3',7-trimethoxyflavone]
Acute toxicity in mice; [4]
  LD50 at 504 h: 1000 mg/kg
Acute toxicity in mice; [5]
  LD50 at 504 h: > 5000 mg/kg
Coxsackie virus B1 [1]; [6]
  responders at 10 mg/kg: 54%
Coxsackie virus B1 [2]
  IC50: 0.25 µg/mL (≈ 0.529 µM)
Rhinovirus HGP; [7]
  IC50: 0.25 µg/mL (≈ 0.529 µM)

## COc1cc(O)c2c(=O)c(OC)c(-c3ccc(O)cc3)oc2c1 [4',5-dihydroxy-3,7-dimethoxyflavone]
Rhinovirus type 3
  MIC: 0.3 µg/mL (≈ 0.955 µM)
Rhinovirus type 53
  MIC: 0.3 µg/mL (≈ 0.955 µM)
Rhinovirus type 47
  MIC: 0.3 µg/mL (≈ 0.955 µM)
Rhinovirus type 21
  MIC: 0.3 µg/mL (≈ 0.955 µM)
Rhinovirus type 32
  MIC: 0.3 µg/mL (≈ 0.955 µM)
Rhinovirus type 17
  MIC: 0.1 µg/mL (≈ 0.318 µM)
Rhinovirus type 16
  MIC: 0.3 to 1 µg/mL (≈ 0.955 to 3.18 µM)
Rhinovirus type 39
  MIC: 0.3 µg/mL (≈ 0.955 µM)
Rhinovirus type 26
  MIC: 0.3 µg/mL (≈ 0.955 µM)
Rhinovirus type 9
  MIC: 0.3 µg/mL (≈ 0.955 µM)
Rhinovirus type 36
  MIC: 0.3 µg/mL (≈ 0.955 µM)
Rhinovirus type 50
  MIC: 0.3 µg/mL (≈ 0.955 µM)
Coxsackie virus B1 [2]
  IC50: 0.1 µg/mL (≈ 0.318 µM)
Coxsackie virus B1 [2]; read-out: Minimum inhibitory concentration
  MIC: 0.1 µg/mL (≈ 0.318 µM)
Rhinovirus type 44
  MIC: 0.5 µg/mL (≈ 1.59 µM)
Rhinovirus type 14
  MIC: 0.3 µg/mL (≈ 0.955 µM)
Rhinovirus type 2
  MIC: 0.1 µg/mL (≈ 0.318 µM)
Rhinovirus type 55
  MIC: 0.1 to 0.3 µg/mL (≈ 0.318 to 0.955 µM)
Rhinovirus type 1A
  MIC: 0.03 µg/mL (≈ 0.0955 µM)
Rhinovirus type 13
  MIC: 0.3 to 1 µg/mL (≈ 0.955 to 3.18 µM)
Rhinovirus type 34
  MIC: 0.3 µg/mL (≈ 0.955 µM)
Rhinovirus type 4
  MIC: 0.3 to 1 µg/mL (≈ 0.955 to 3.18 µM)
Rhinovirus HGP; HeLa
  IC50: 0.1 µg/mL (≈ 0.318 µM)
Rhinovirus type 30
  MIC: 0.1 µg/mL (≈ 0.318 µM)
